Source: the NIST ThermoML archive (doi:10.1021/je0498560)

Assay: xn = mol fraction of the nth substance listed
Conditions: Liquid

C[N+](=O)[O-] [nitromethane] + O=C=O
Conditions | molar volume [m3/mol]
298 K, x2 = 0.12 | 4.93e-05
298 K, x2 = 0.238 | 4.83e-05
298 K, x2 = 0.346 | 4.76e-05
298 K, x2 = 0.457 | 4.74e-05
298 K, x2 = 0.552 | 4.74e-05
298 K, x2 = 0.678 | 4.71e-05
298 K, x2 = 0.747 | 4.77e-05
298 K, x2 = 0.81 | 4.78e-05
298 K, x2 = 0.855 | 4.87e-05
298 K, x2 = 0.876 | 4.91e-05
313 K, x2 = 0.048 | 5.88e-05
313 K, x2 = 0.119 | 5.71e-05
313 K, x2 = 0.183 | 5.56e-05
313 K, x2 = 0.254 | 5.51e-05
313 K, x2 = 0.32 | 5.45e-05
313 K, x2 = 0.385 | 5.37e-05
313 K, x2 = 0.479 | 5.32e-05
313 K, x2 = 0.546 | 5.23e-05
313 K, x2 = 0.627 | 5.09e-05
313 K, x2 = 0.727 | 4.99e-05
313 K, x2 = 0.791 | 5.08e-05

FC(F)(F)C(F)(F)C(F)(F)C(F)(F)C(F)(F)C(F)(F)F [perfluorohexane] + O=C=O
313 K
Conditions | molar volume [m3/mol]
x2 = 0.146 | 0.0001867
x2 = 0.163 | 0.000187
x2 = 0.262 | 0.0001742
x2 = 0.27 | 0.0001732
x2 = 0.339 | 0.0001655
x2 = 0.424 | 0.0001511
x2 = 0.474 | 0.0001448
x2 = 0.547 | 0.0001324
x2 = 0.615 | 0.0001235
x2 = 0.665 | 0.0001165
x2 = 0.721 | 0.0001062
x2 = 0.765 | 9.7e-05
x2 = 0.776 | 9.49e-05
x2 = 0.811 | 9.03e-05
x2 = 0.836 | 9.17e-05

CC(C)O [propan-2-ol] + O=C=O
313 K
Conditions | molar volume [m3/mol]
x2 = 0.018 | 7.97e-05
x2 = 0.065 | 7.88e-05
x2 = 0.133 | 7.62e-05
x2 = 0.21 | 7.45e-05
x2 = 0.3 | 7.17e-05
x2 = 0.401 | 6.85e-05
x2 = 0.51 | 6.4e-05
x2 = 0.639 | 6.06e-05
x2 = 0.725 | 5.99e-05
x2 = 0.788 | 6.01e-05

C1CCOC1 [tetrahydrofuran] + O=C=O
Conditions | molar volume [m3/mol]
298 K, x2 = 0.132 | 7.08e-05
298 K, x2 = 0.228 | 6.55e-05
298 K, x2 = 0.333 | 6.46e-05
298 K, x2 = 0.451 | 6.2e-05
298 K, x2 = 0.518 | 6.08e-05
298 K, x2 = 0.624 | 5.86e-05
298 K, x2 = 0.736 | 5.64e-05
298 K, x2 = 0.83 | 5.49e-05
298 K, x2 = 0.899 | 5.43e-05
313 K, x2 = 0.098 | 7.75e-05
313 K, x2 = 0.313 | 7.09e-05
313 K, x2 = 0.398 | 6.82e-05
313 K, x2 = 0.489 | 6.53e-05
313 K, x2 = 0.576 | 6.29e-05
313 K, x2 = 0.655 | 6.23e-05
313 K, x2 = 0.733 | 6.02e-05
313 K, x2 = 0.832 | 5.72e-05
313 K, x2 = 0.89 | 6.02e-05
333 K, x2 = 0.165 | 7.45e-05
333 K, x2 = 0.26 | 7.34e-05
333 K, x2 = 0.404 | 6.87e-05
333 K, x2 = 0.539 | 6.6e-05
333 K, x2 = 0.696 | 5.84e-05
333 K, x2 = 0.808 | 6.04e-05
333 K, x2 = 0.85 | 6.29e-05
333 K, x2 = 0.893 | 7.05e-05

Cc1ccccc1 [toluene] + O=C=O
323 K
Conditions | molar volume [m3/mol]
x2 = 0.091 | 0.0001014
x2 = 0.175 | 9.72e-05
x2 = 0.26 | 9.21e-05
x2 = 0.335 | 8.76e-05
x2 = 0.408 | 8.37e-05
x2 = 0.48 | 8.02e-05
x2 = 0.524 | 7.82e-05
x2 = 0.583 | 7.22e-05
x2 = 0.644 | 6.72e-05
x2 = 0.715 | 6.46e-05
x2 = 0.764 | 6.32e-05
x2 = 0.821 | 6.23e-05
x2 = 0.865 | 6.26e-05
x2 = 0.883 | 6.35e-05
